Conditions: Liquid; for mass density: Buoyancy - hydrostatic balance; for viscosity: Falling or rolling sphere viscometry

OCCO [1,2-ethanediol]
Conditions | mass density [kg/m3] | viscosity [mPa·s]
293.15 K, 98 kPa | 1113.58 | 21.1
293.15 K, 49030 kPa | 1134.56 | 26.75
293.15 K, 98060 kPa | 1147.72 | 33.42
293.15 K, 147100 kPa | 1159.85 | 41.19
293.15 K, 196130 kPa | 1173.34 | 50.33
293.15 K, 245160 kPa | 1185.44 | 60.43
312.46 K, 98 kPa | 1100.88 | 9.925
312.46 K, 98060 kPa | 1139.02 | 14.82
312.49 K, 49030 kPa | 1123.04 | 12.24
312.49 K, 147100 kPa | 1153.18 | 17.64
312.65 K, 245160 kPa | 1179.39 | 24.69
334.87 K, 98 kPa | 1085.13 | 4.949
335 K, 49030 kPa | 1108.43 | 5.952
335.3 K, 98060 kPa | 1127.05 | 7.031
335.35 K, 245160 kPa | 1169.07 | 11.15
335.43 K, 147100 kPa | 1143.57 | 8.234
335.45 K, 196130 kPa | 1156.71 | 9.608
349.24 K, 98 kPa | 1074.46 | 3.517
349.5 K, 49030 kPa | 1098.33 | 4.157
349.65 K, 98060 kPa | 1118.59 | 4.89
349.67 K, 147100 kPa | 1136.69 | 5.688
349.8 K, 196130 kPa | 1149.28 | 6.541
349.91 K, 245160 kPa | 1161.91 | 7.454
365.7 K, 98 kPa | 1061.7 | 2.39
366.1 K, 49030 kPa | 1086.11 | 2.816
366.15 K, 98060 kPa | 1107.99 | 3.302
366.37 K, 147100 kPa | 1127.71 | 3.812
366.48 K, 196130 kPa | 1139.94 | 4.344
366.8 K, 245160 kPa | 1153.08 | 4.889
380.15 K, 98060 kPa | 1098.24 | 2.558
380.82 K, 98 kPa | 1049.47 | 1.872
381 K, 49030 kPa | 1074.54 | 2.207
381.2 K, 196130 kPa | 1131.06 | 3.345
381.27 K, 147100 kPa | 1118.88 | 2.932
381.3 K, 245160 kPa | 1145.04 | 3.784
395.55 K, 98 kPa | 1037.07 | 1.419
395.6 K, 49030 kPa | 1062.66 | 1.673
395.61 K, 98060 kPa | 1086.68 | 1.936
395.65 K, 147100 kPa | – | 2.214
395.73 K, 196130 kPa | 1121.71 | 2.501
395.8 K, 245160 kPa | 1136.57 | 2.811
421.7 K, 98 kPa | 1013.93 | 0.96
421.71 K, 49030 kPa | 1040.05 | 1.174
421.8 K, 98060 kPa | 1065.2 | 1.345
421.9 K, 147100 kPa | 1090.87 | 1.521
422 K, 196130 kPa | – | 1.716
422 K, 245160 kPa | 1120.22 | 1.898
464.4 K, 98 kPa | 972.98 | 0.652
464.47 K, 98060 kPa | 1025.08 | 0.97
464.53 K, 196130 kPa | 1069.52 | 1.203
464.53 K, 245160 kPa | 1090.75 | 1.356
464.54 K, 147100 kPa | 1055.29 | 1.11
464.6 K, 49030 kPa | 999.13 | 0.877

OCCOCCO [diethylene glycol]
Conditions | mass density [kg/m3] | viscosity [mPa·s]
293.15 K, 98 kPa | 1117.04 | 36.52
293.15 K, 49030 kPa | 1137.67 | 52.72
293.15 K, 98060 kPa | 1158.16 | 74.16
293.15 K, 147100 kPa | 1171 | 102.6
293.15 K, 196130 kPa | 1184.89 | 139.9
293.15 K, 245160 kPa | 1196.63 | 187.3
298.15 K, 98 kPa | 1114.02 | 28.36
298.15 K, 49030 kPa | 1135.41 | 40.36
298.15 K, 98060 kPa | 1155.68 | 56.52
298.15 K, 147100 kPa | 1168.88 | 77.16
298.15 K, 196130 kPa | 1182.6 | 103.8
298.15 K, 245160 kPa | 1194.5 | 138.3
312.6 K, 98 kPa | 1104.9 | 15.25
312.62 K, 49030 kPa | 1128.43 | 21.04
312.63 K, 98060 kPa | 1148.18 | 28.2
312.67 K, 147100 kPa | 1162.46 | 37.14
312.71 K, 196130 kPa | 1175.84 | 48.29
312.75 K, 245160 kPa | 1188.18 | 62.07
329.28 K, 98 kPa | 1093.62 | 8.458
329.33 K, 98060 kPa | 1138.99 | 14.73
329.33 K, 196130 kPa | 1167.96 | 23.82
329.33 K, 245160 kPa | 1180.84 | 29.61
329.38 K, 49030 kPa | 1119.54 | 11.29
329.38 K, 147100 kPa | 1154.56 | 18.83
344.99 K, 98 kPa | 1082.27 | 5.34
345.2 K, 49030 kPa | 1110.34 | 7.062
345.38 K, 98060 kPa | 1129.61 | 8.969
345.47 K, 147100 kPa | 1146.46 | 11.23
345.61 K, 196130 kPa | 1160.06 | 13.81
345.78 K, 245160 kPa | 1173.38 | 16.75
349.77 K, 98 kPa | 1078.67 | 4.809
350.06 K, 49030 kPa | 1107.36 | 6.25
350.13 K, 147100 kPa | 1144.02 | 9.866
350.16 K, 98060 kPa | 1126.71 | 7.904
350.4 K, 196130 kPa | 1157.71 | 12.04
366.77 K, 98 kPa | 1065.35 | 3.231
367.13 K, 49030 kPa | 1096.31 | 4.124
367.26 K, 147100 kPa | 1134.7 | 6.331
367.3 K, 98060 kPa | 1115.94 | 5.145
367.37 K, 196130 kPa | 1149.25 | 7.607
367.61 K, 245160 kPa | 1163.2 | 9.086
413.65 K, 98 kPa | 1024.3 | 1.409
413.8 K, 49030 kPa | 1061.47 | 1.78
413.93 K, 98060 kPa | 1083.55 | 2.153
414.01 K, 147100 kPa | 1106.4 | 2.554
414.09 K, 196130 kPa | 1124.99 | 2.987
414.29 K, 245160 kPa | 1140.38 | 3.474
463.94 K, 98060 kPa | 1043.8 | 1.218
463.99 K, 49030 kPa | 1016.46 | 1.002
464.05 K, 98 kPa | 973.11 | 0.789
464.09 K, 147100 kPa | 1071.5 | 1.432
464.2 K, 196130 kPa | 1097.41 | 1.655
464.37 K, 245160 kPa | 1114.3 | 1.879

OCCOCCOCCO [triethylene glycol]
Conditions | mass density [kg/m3] | viscosity [mPa·s]
298.15 K, 98 kPa | 1119.75 | 36.82
298.15 K, 49030 kPa | 1143.46 | 55.23
298.15 K, 98060 kPa | 1161.38 | 80.29
298.15 K, 147100 kPa | 1175.25 | 114.4
298.15 K, 196130 kPa | 1189.31 | 160.6
298.15 K, 245160 kPa | 1200.31 | 221.8
312.96 K, 98 kPa | 1109.61 | 19.03
313.05 K, 49030 kPa | 1134.18 | 27.42
313.1 K, 98060 kPa | 1152.38 | 38.28
313.18 K, 147100 kPa | 1166.44 | 52.5
313.25 K, 196130 kPa | 1180.35 | 70.68
313.26 K, 245160 kPa | 1191.47 | 93.99
334.96 K, 98 kPa | 1093.69 | 9.002
335.11 K, 49030 kPa | 1119.52 | 12.45
335.14 K, 98060 kPa | 1138.49 | 16.7
335.2 K, 147100 kPa | 1153.34 | 22.03
335.25 K, 196130 kPa | 1167.46 | 28.48
335.26 K, 245160 kPa | 1178.87 | 36.37
349.25 K, 98 kPa | 1082.8 | 5.945
349.94 K, 196130 kPa | 1158.94 | 17.53
349.98 K, 49030 kPa | 1109.01 | 8.061
349.98 K, 98060 kPa | 1128.74 | 10.66
349.99 K, 245160 kPa | 1170.6 | 21.84
350.03 K, 147100 kPa | 1144.4 | 13.75
364.44 K, 98 kPa | 1070.74 | 4.131
364.44 K, 49030 kPa | 1098.31 | 5.537
364.72 K, 98060 kPa | 1118.72 | 7.149
365.03 K, 147100 kPa | 1135.26 | 9.021
365.07 K, 196130 kPa | 1150.26 | 11.24
365.2 K, 245160 kPa | 1162.2 | 13.8
413.73 K, 98 kPa | 1028.27 | 1.679
414 K, 49030 kPa | 1058.03 | 2.179
414.15 K, 98060 kPa | 1082.77 | 2.836
414.27 K, 147100 kPa | 1104.57 | 3.32
414.3 K, 196130 kPa | 1122.57 | 3.995
414.43 K, 245160 kPa | 1136 | 4.485
462.25 K, 98 kPa | 981.42 | 0.997
462.26 K, 49030 kPa | 1013.43 | 1.303
462.32 K, 98060 kPa | 1044.24 | 1.614
462.41 K, 147100 kPa | 1073.54 | 1.941
462.45 K, 196130 kPa | 1096.35 | 2.3
462.58 K, 245160 kPa | 1111.83 | 2.678

From the NIST ThermoML archive (doi:10.1016/j.fluid.2011.11.022)
